US20070092551A1, “Therapeutic agent” (TAKARA BIO INC., priority 2003, published 2007)

Assays:
[1] = test system: type II diabetes model mouse; assay: Glucose tolerance test, 4-hydroxyderricin and combined use with xanthoangelol; format: in vivo; details: male KK-Ay mice
Procedure: Amelioration effects for glucose tolerance by 4-hydroxyderricin and combined use of 4-hydroxyderricin and xanthoangelol were examined using a type II diabetes model mouse. Experiments were carried out with five male 12-week old KK-Ay mice (CLEA Japan, Inc.) per group. 4-Hydroxyderricin which was previously suspended or dissolved in an olive oil so as to have a concentration of 4% (w/v) was forcibly orally administered to a group to be administered with 4-hydroxyderricin at 200 mg/kg once a day for consecutive days. 4-Hydroxyderricin and xanthoangelol which were each suspended or dissolved in an olive oil to 4% (w/v) were mixed in equal volumes, and the mixture was forcibly orally administered to a group to be administered with a combined use of 4-hydroxyderricin and xanthoangelol once a day for consecutive days so that each administration concentration became 100 mg/kg. An olive oil was administered to the mice in the control group at 5 mL/kg in the same manner. The mice were fasted over one night spanning from the fifteenth day to the sixteenth day from administration, and a glucose tolerance test was carried out. Four hours after the administration of the sample, a 10% glucose solution was intraperitoneally administered at 1 g/kg. Thirty minutes before glucose tolerance and 30 minutes after the tolerance, blood was collected from veins of the tail, and the blood glucose level was determined with a simple blood glucose meter, ACCU-CHEK Compact (Roche Diagnostic K.K.).

[2] = test system: mature adipocytes which were induced to be differentiated by xanthoangelol; assay: Glucose uptake into adipocytes induced to be differentiated by xanthoangelol; format: cell-based; details: stimulation with 4-hydroxyderricin 20 μM; adipocytes differentiated with xanthoangelol 10 μM
Procedure: Adipocytes which were induced to be differentiated by xanthoangelol were obtained, and thereafter it was confirmed on whether the glucose uptake into the adipocytes is enhanced by stimulation with insulin or 4-hydroxyderricin.
Specifically, as a sample, there was set a group with addition of a dimethyl sulfoxide solution of xanthoangelol having a final concentration of 10 μM. Thereafter, the medium and the sample were exchanged in the same manner as in the method described in Example 82 except that 3-isobutyl-1-methylxanthine having a final concentration of 0.5 mM was added concurrently with the addition of dexamethasone, to give mature adipocytes which were induced to be differentiated by xanthoangelol.
Next, the amount of 2-deoxyglucose uptake into the mature adipocytes during the stimulation with insulin or 4-hydroxyderricin in the resulting mature adipocytes was determined in the same manner as in the method described in Example 83.
Specifically, there were set the group without the addition and the group with addition of insulin having a final concentration of 1 μg/mL or 4-hydroxyderricin having a final concentration of 20 μM. Thereafter, the amount of 2-deoxy-[1,2-^3H(N)]-glucose uptake into the adipocytes was determined in the same manner.

[3] = test system: type II diabetes model mice; assay: Amelioration effects on diabetes of 4-hydroxyderricin (blood glucose level); format: in vivo; details: male KK-Ay mice
Procedure: Pathological amelioration effects of 4-hydroxyderricin were examined using type II diabetes model mice. Experiments were carried out with five male 12-week old KK-Ay mice (CLEA Japan, Inc.) per group. 4-Hydroxyderricin was suspended or dissolved in a 0.5% (w/v) carboxymethyl cellulose solution (CMC) so as to have a concentration of 4% (w/v), and the suspension or solution was forcibly orally administered to the mice once a day at 200 mg/kg for consecutive days. CMC was administered to each mice in the control group at 5 mL/kg in the same manner. On the day before the beginning of administration, on the fourth day and on the eighteenth day, blood was collected from the veins of mouse tails, and the blood glucose level was determined with a simple blood glucose meter, ACCU-CHEK Compact (Roche Diagnostics K.K.). […] Here, during the experimental period, no changes were found in body weight and general symptoms.

[4] = test system: type II diabetes model mice; assay: Amelioration effects on diabetes of xanthoangelol (blood glucose level, serum insulin); format: in vivo; details: female KK-Ay mice
Procedure: Pathological amelioration effects of xanthoangelol were examined using type II diabetes model mice. Experiments were carried out with five female 12-week old KK-Ay mice (CLEA Japan, Inc.) per group. Xanthoangelol was suspended or dissolved in an olive oil so as to have a concentration of 4% (w/v), and the suspension or solution was forcibly orally administered to the mice once a day at 200 mg/kg for consecutive days. The olive oil was administered to mice in the control group at 5 mL/kg in the same manner. On the day before the beginning of administration, on the fourth day and on the twenty-second day, the blood glucose level was determined in the same manner as in Example 88. In addition, on the twenty-second day, blood was simultaneously collected from abdominal cava, and the insulin concentration in serum was determined with Lebis Insulin Kit (Shibayagi Co., Ltd.). […] During the experimental period, no changes were found in body weight and general symptoms.

[5] = 200 mg/kg oral once a day in CMC, mean ± standard error
[6] = 200 mg/kg oral once a day, experimental period
[7] = 200 mg/kg oral once a day in olive oil, mean ± standard error

SMILES	amelioration effects for glucose tolerance (in words) ([1]; 4-hydroxyderricin 200 mg/kg alone or combined use 100 mg/kg each)	Blood Glucose Level, Before Glucose Tolerance ([1]; 200 mg/kg oral once a day, sixteenth day, fasted, 30 minutes before glucose 1 g/kg i.p.)	Blood Glucose Level, 30 Minutes After Tolerance ([1]; 200 mg/kg oral once a day, sixteenth day, fasted, glucose 1 g/kg i.p.)	2-deoxy-[1,2-3H(N)]-glucose uptake [2]	blood glucose level (in words) ([3]; 200 mg/kg oral once a day)	Blood Glucose Level, Eighteenth Day [3, 5]	Blood Glucose Level, Fourth Day [3, 5]	changes in body weight and general symptoms [3, 6]	Blood Glucose Level, Previous Day ([3]; day before beginning of administration, 200 mg/kg oral once a day in CMC, mean ± standard error)	action of ameliorating insulin resistance ([4]; 200 mg/kg oral once a day)	blood glucose level and insulin concentration (in words) ([4]; 200 mg/kg oral once a day)	Blood Glucose Level, Fourth Day [4, 7]	Blood Glucose Level, Twenty-second Day [4, 7]	changes in body weight and general symptoms [4, 6]	Blood Glucose Level, Previous Day ([4]; day before beginning of administration, 200 mg/kg oral once a day in olive oil, mean ± standard error)	Insulin (concentration in serum) ([4]; twenty-second day, 200 mg/kg oral once a day in olive oil, mean ± standard error)
COc1ccc(C(=O)/C=C/c2ccc(O)cc2)c(O)c1CC=C(C)C [4-Hydroxyderricin, 4,2′-Dihydroxy-3′-prenyl-4′-methoxychalcone]	amelioration effects for glucose tolerance were found	93 ± 2 mg/dL	224 ± 11 mg/dL	enhancement of 2-deoxy-[1,2-^3H(N)]-glucose uptake	lowered	191 ± 10 mg/dL	187 ± 9 mg/dL	no changes	262 ± 14 mg/dL	–	–	–	–	–	–	–
CC(C)=CCC/C(C)=C/Cc1c(O)ccc(C(=O)/C=C/c2ccc(O)cc2)c1O [Xanthoangelol, 4,2′,4′-Trihydroxy-3′-geranylchalcone]	–	–	–	–	–	–	–	–	–	action of ameliorating insulin resistance was found	lowered	192 ± 16 mg/dL	209 ± 8 mg/dL	no changes	249 ± 13 mg/dL	31 ± 7 ng/mL
